Source: patent US20220048884A1, “NRF2 ACTIVATOR” (BIOGEN MA INC., priority 2017, published 2022)

How the values were obtained:
Nrf2 target genes [1] = assay: Nrf2 target gene expression (qRT-PCR) in tissues of mice after oral dosing; type: in vivo, C57BL/6 mice; conditions: wild-type mice, 10 and 50 mg/kg single oral dose, 2 hours after dosing
From the text: RNA was extracted in chloroform and the aqueous phase was mixed with an equal volume of 70% ethanol. Extracted RNA was applied to RNeasy 96 plates and purified by the spin method according to the manufacturer's protocol (RNeasy 96 Universal Tissue Protocol, QIAgen, Hilden Germany).

human astrocytes [2] = assay: Glutathione assay in human astrocytes (GSH-Glo); type: cell-based; conditions: 20-hr exposure
Protocol: (§1) Human astrocytes from ScienCell (cat #1820) were grown in astrocyte medium per supplier's instructions. Cells cultured for no more than two passages were plated in 96-well plates at 40,000 cells per well for gene transcription experiments and 20,000 cell per well for glutathione and cytoprotection assays.
Intracellular glutathione was measured after a 20-hr exposure to test compounds by a two-step process. First, cells were lysed and luciferin quantitatively generated from substrate, catalyzed by glutathione-S-transferase in the presence of analyte glutathione. Then luciferin was assayed using stabilized luciferase to produce a luminescent signal proportional to the concentration of glutathione (Promega GSH-Glo, cat #V6912).

human astrocytes [3] = assay: Cytoprotection of astrocytes against sodium arsenite; type: cell-based; conditions: compound 20 hrs before 25 μM sodium arsenite, then 22 hrs
Protocol: as §1
Astrocytes were treated for 20 hrs as above, then the medium was removed and replaced with serum- and supplement-free growth medium with and without 25 μM sodium arsenite. After 22 hrs., cells were washed with PBS, fixed with 4% paraformaldehyde/4% sucrose in PBS, stained with 4′,6-Diamidino-2-phenylindole dihydrochloride (DAPI) and counted by quantitative fluorescence microscopy.

Nrf2 target genes [4] = assay: Gene expression (RT-PCR) in cultured human astrocytes; type: cell-based; conditions: 20 hours, increasing concentrations
Protocol: as §1
Primary cultures of human spinal cord astrocytes were treated with compound for 20 hours. The cells were then rinsed in PBS, lysed, and processed for RNA using Ambion Tagman™ Cells-to-CT kit. The resulting cDNA was stored at −20° C. until analysis by real-time polymerase chain reaction (RT-PCR). The cDNA mixture from Cells-to-CT was diluted 5× before loading into PCR. This yields results similar to using 6 ng of purified cDNA. RT-PCR was performed on Life Technologies QuantStudio platform using OpenArray technique according to manufacturer's protocol using the following Taqman primers: […]
The comparative CT method was used to calculate fold changes using ThermoFisher Cloud software for PCR analysis. Samples were compared to vehicle control.

NRF2 = assay: PathHunter Nuclear Translocation assay (DiscoverX), agonist format; type: cell-based; conditions: 6 hours incubation, 10 concentrations, 30 μM top concentration
From the text: Vehicle concentration was 1%.
Microplates were read following signal generation with a PerkinElmer Envision™ instrument for chemiluminescent signal detection.

| Structure (SMILES) | expression of Osgin1 in brain (Nrf2 target genes [1]) | intracellular glutathione (human astrocytes [2]) | protection from oxidative stress-induced cell death (human astrocytes [3]) | transcription of GCLC (Nrf2 target genes [4]) | transcription of HMOX1 (Nrf2 target genes [4]) | transcription of NQO1 (Nrf2 target genes [4]) | transcription of OSGIN1 (Nrf2 target genes [4]) | EC50 (NRF2) |
| --- | --- | --- | --- | --- | --- | --- | --- | --- |
| CCn1nnc2c(C)c([C@@H](CC(=O)O)c3ccc4c(c3)CN(C(=O)c3c(C)c(C)cc(C)c3C)CC4)ccc21 [Example 47-Ent1, (S)-3-(1-ethyl-4-methyl-1H-benzo[d][1,2,3]triazol-5-yl)-3-(2-(2,3,5,6-tetramethylbenzoyl)-1,2,3,4-tetrahydroisoquinolin-7-yl)propanoic acid] | increases the expression | increases intracellular glutathione | protects cells from oxidative stress-induced cell death | induces transcription | induces transcription | induces transcription | induces transcription |  |
| CCn1nnc2c(C)c([C@H](c3ccc4c(c3)CN(C(=O)c3ccc(C)c(C)c3)CC4)[C@H](C)C(=O)ON)ccc21 [Example 133, amino (2S,3S)-3-[2-(3,4-dimethylbenzoyl)-3,4-dihydro-1H-isoquinolin-7-yl]-3-(1-ethyl-4-methyl-benzotriazol-5-yl)-2-methyl-propanoate] |  |  |  |  |  |  |  | < 100 nM |
